Results from ChEMBL document CHEMBL2331518, “Rapid microwave-enhanced synthesis of C5-alkynyl pyranonucleosides as novel cytotoxic antitumor agents” (Bioorg Med Chem Lett, 2013).

test system: HeLa; assay: Cytotoxicity against human HeLa cells after 72 hrs; type: functional, cell-based; conditions: not given

| Compound | IC50 [µM] |
| --- | --- |
| CCCC#Cc1cn([C@@H]2O[C@H](CO)[C@@H](O)[C@H](O)[C@H]2O)c(=O)[nH]c1=O | 95 |
| CC(=O)OC[C@H]1O[C@@H](n2cc(C#Cc3cccc[n+]3C)c(=O)[nH]c2=O)[C@H](OC(C)=O)[C@@H](OC(C)=O)[C@@H]1OC(C)=O | 232 |
| CCCCCc1ccc(C#Cc2cn([C@@H]3O[C@H](CO)[C@@H](O)[C@H](O)[C@H]3O)c(=O)nc2O)cc1 | 31 |
| CCCCCC#Cc1cn([C@@H]2O[C@H](CO)[C@@H](O)[C@H](O)[C@H]2O)c(=O)nc1N | ≥ 250 |
| CC(=O)OC[C@H]1O[C@@H](n2cc(C#Cc3ccccn3)c(=O)[nH]c2=O)[C@H](OC(C)=O)[C@@H](OC(C)=O)[C@@H]1OC(C)=O | 90 |
| C#Cc1cn([C@@H]2O[C@H](CO)[C@@H](O)[C@H](O)[C@H]2O)c(=O)[nH]c1=O | 231 |
| CC(C)(C)c1ccc(C#Cc2cn([C@@H]3O[C@H](CO)[C@@H](O)[C@H](O)[C@H]3O)c(=O)nc2N)cc1 | 140 |
| CCCC#Cc1cn([C@@H]2O[C@H](CO)[C@@H](O)[C@H](O)[C@H]2O)c(=O)nc1N | 191 |
| CC(C)(C)c1ccc(C#Cc2cn([C@@H]3O[C@H](CO)[C@@H](O)[C@H](O)[C@H]3O)c(=O)nc2O)cc1 | 37 |
| CCCCCc1ccc(C#Cc2cn([C@@H]3O[C@H](CO)[C@@H](O)[C@H](O)[C@H]3O)c(=O)nc2N)cc1 | 43 |
| CC(=O)OC[C@H]1O[C@@H](n2cc(C#Cc3cccnc3)c(=O)[nH]c2=O)[C@H](OC(C)=O)[C@@H](OC(C)=O)[C@@H]1OC(C)=O | > 250 |
| O=c1[nH]c(=O)n([C@@H]2O[C@H](CO)[C@@H](O)[C@H](O)[C@H]2O)cc1CCc1ccccc1 | 43 |

test system: L1210; assay: Cytotoxicity against mouse L1210 cells after 48 hrs; type: functional, cell-based; conditions: L1210, 48 h

| Compound | IC50 [µM] |
| --- | --- |
| CCCC#Cc1cn([C@@H]2O[C@H](CO)[C@@H](O)[C@H](O)[C@H]2O)c(=O)[nH]c1=O | 115 |
| CC(=O)OC[C@H]1O[C@@H](n2cc(C#Cc3cccc[n+]3C)c(=O)[nH]c2=O)[C@H](OC(C)=O)[C@@H](OC(C)=O)[C@@H]1OC(C)=O | 203 |
| CCCCCc1ccc(C#Cc2cn([C@@H]3O[C@H](CO)[C@@H](O)[C@H](O)[C@H]3O)c(=O)nc2O)cc1 | 70 |
| CCCCCC#Cc1cn([C@@H]2O[C@H](CO)[C@@H](O)[C@H](O)[C@H]2O)c(=O)nc1N | ≥ 250 |
| CC(=O)OC[C@H]1O[C@@H](n2cc(C#Cc3ccccn3)c(=O)[nH]c2=O)[C@H](OC(C)=O)[C@@H](OC(C)=O)[C@@H]1OC(C)=O | 115 |
| C#Cc1cn([C@@H]2O[C@H](CO)[C@@H](O)[C@H](O)[C@H]2O)c(=O)[nH]c1=O | 141 |
| CC(C)(C)c1ccc(C#Cc2cn([C@@H]3O[C@H](CO)[C@@H](O)[C@H](O)[C@H]3O)c(=O)nc2N)cc1 | > 250 |
| CCCC#Cc1cn([C@@H]2O[C@H](CO)[C@@H](O)[C@H](O)[C@H]2O)c(=O)nc1N | ≥ 250 |
| CC(C)(C)c1ccc(C#Cc2cn([C@@H]3O[C@H](CO)[C@@H](O)[C@H](O)[C@H]3O)c(=O)nc2O)cc1 | 185 |
| CCCCCc1ccc(C#Cc2cn([C@@H]3O[C@H](CO)[C@@H](O)[C@H](O)[C@H]3O)c(=O)nc2N)cc1 | 132 |
| CC(=O)OC[C@H]1O[C@@H](n2cc(C#Cc3cccnc3)c(=O)[nH]c2=O)[C@H](OC(C)=O)[C@@H](OC(C)=O)[C@@H]1OC(C)=O | > 250 |
| O=c1[nH]c(=O)n([C@@H]2O[C@H](CO)[C@@H](O)[C@H](O)[C@H]2O)cc1CCc1ccccc1 | 300 |

test system: CCRF-CEM; assay: Cytotoxicity against human CEM cells after 72 hrs; type: functional, cell-based; conditions: not given

| Compound | IC50 [µM] |
| --- | --- |
| CCCC#Cc1cn([C@@H]2O[C@H](CO)[C@@H](O)[C@H](O)[C@H]2O)c(=O)[nH]c1=O | 123 |
| CC(=O)OC[C@H]1O[C@@H](n2cc(C#Cc3cccc[n+]3C)c(=O)[nH]c2=O)[C@H](OC(C)=O)[C@@H](OC(C)=O)[C@@H]1OC(C)=O | > 250 |
| CCCCCc1ccc(C#Cc2cn([C@@H]3O[C@H](CO)[C@@H](O)[C@H](O)[C@H]3O)c(=O)nc2O)cc1 | 81 |
| CCCCCC#Cc1cn([C@@H]2O[C@H](CO)[C@@H](O)[C@H](O)[C@H]2O)c(=O)nc1N | > 250 |
| CC(=O)OC[C@H]1O[C@@H](n2cc(C#Cc3ccccn3)c(=O)[nH]c2=O)[C@H](OC(C)=O)[C@@H](OC(C)=O)[C@@H]1OC(C)=O | 139 |
| C#Cc1cn([C@@H]2O[C@H](CO)[C@@H](O)[C@H](O)[C@H]2O)c(=O)[nH]c1=O | > 250 |
| CC(C)(C)c1ccc(C#Cc2cn([C@@H]3O[C@H](CO)[C@@H](O)[C@H](O)[C@H]3O)c(=O)nc2N)cc1 | > 250 |
| CCCC#Cc1cn([C@@H]2O[C@H](CO)[C@@H](O)[C@H](O)[C@H]2O)c(=O)nc1N | > 250 |
| CC(C)(C)c1ccc(C#Cc2cn([C@@H]3O[C@H](CO)[C@@H](O)[C@H](O)[C@H]3O)c(=O)nc2O)cc1 | > 250 |
| CCCCCc1ccc(C#Cc2cn([C@@H]3O[C@H](CO)[C@@H](O)[C@H](O)[C@H]3O)c(=O)nc2N)cc1 | 115 |
| CC(=O)OC[C@H]1O[C@@H](n2cc(C#Cc3cccnc3)c(=O)[nH]c2=O)[C@H](OC(C)=O)[C@@H](OC(C)=O)[C@@H]1OC(C)=O | 182 |
| O=c1[nH]c(=O)n([C@@H]2O[C@H](CO)[C@@H](O)[C@H](O)[C@H]2O)cc1CCc1ccccc1 | 244 |
